Results taken from patent publication US20060252798A1, “Metal ion chelators and therapeutic use thereof” (priority 2003, published 2006).

What was measured:
[1] = test system: SK-N-MC neuroepithelioma cells; test: 3H-leucine incorporation by SK-N-MC cells; type: cell-based, human; settings: 20 h incubation then 2 h label; Mean ± SD, 4 experiments
Protocol: (§1) After a 20 h incubation of the SK-N-MC cells with a selection of analogues, ^3H-thymidine, ^3H-leucine, or ^3H-uridine (1 μCi/ml) was added for 2 h at 37° C. The cells were detached from the 96 well plate using 1 mM EDTA in Ca(II)/Mg(II)-free PBS and collected and washed using a cell harvester (Tomtec Harvester 96, Linbrook, Queensland, Australia). Radioactivity was measured on a P-scintillation counter (LKB Wallace, Turku, Finland).

[2] = test system: SK-N-MC neuroepithelioma cells; test: 3H-uridine incorporation by SK-N-MC cells; type: cell-based, human; settings: 20 h incubation then 2 h label; Mean ± SD, 3 experiments
Protocol: as §1

GADD45 and WAF1 mRNA = test: Northern blot of WAF1 and GADD45 mRNA expression in SK-N-MC cells; type: cell-based, human; settings: DFO 100 μM, other chelators 25 μM, 20 h at 37° C. (FIG. 7)
Protocol: FIG. 7. […] Northern blotting was performed using standard procedures (see Example 6).
Northern blot analysis was performed by isolating total RNA using the Total RNA Isolation Reagent (Advanced Biotechnologies Ltd, Surrey, United Kingdom). The membranes were hybridised with probes specific for human WAF1, GADD45, and β-actin. The WAF1 probe consisted of a 1 kb fragment from pSXV (ATCC; Cat. No. 79928). The GADD45 probe consisted of a 760 bp fragment from human GADD45 cDNA cloned into pHu145B2 (kindly supplied by Dr. Albert Fornace, National Cancer Institute, NIH, Maryland). The β-actin probe consisted of a 1.4 kb fragment from human β-actin cDNA cloned into pBluescript SK− (ATCC; Cat. No. 37997).

[3] = test system: iron regulatory proteins (IRPs); test: IRP-RNA-binding activity, gel-retardation assay, SK-N-MC cells; type: cell-based, human; settings: DFO 100 μM, FAC 100 μg/ml, other chelators 25 μM, 20 h (FIG. 8)
Protocol: The IRP-RNA-binding activity was then assessed by the gel-retardation assay. Aliquots of cell lysate containing 2 μg of protein were incubated with 0.1 ng (approximately 1×10^5 cpm) of ^32P-labelled riboprobe for 30 min at room temperature. Using this protocol the level of RNA added was saturating. Unprotected probe was degraded by incubation with 1 U of RNAse T1 for 10 min at room temperature. Heparin (5 mg/ml) was then added for another 10 min to exclude non-specific binding. The IRE-protein complexes were analyzed on 6% non-denaturing polyacrylamide gels. In parallel experiments, samples were treated with ferricyanide (FeCN, 5 mM) and 0.5% β-mercaptoethanol (β-ME), prior to addition of the IRE probe. This procedure results in the conversion of IRP1, whether spontaneously active or not, into an active IRE-binding form.^22

[4] = Maximum tolerated dose in CD2F1 hybrid mice; type: in vivo; settings: CD2F1 mice, iv twice a day
Protocol: BALB/c and DBA/2 mice were obtained from Animal Resources Centre (University of New South Wales (UNSW), Sydney, Australia) and crossed to produce CD2F1 animals (all procedures used were approved by the Animal Ethics Committee, UNSW). Groups of eight female CD2F1 mice (8-10 weeks old) were fed and watered ad-libitum, and injected via the tail vein with compounds being studied in 30% propylene glycol in 0.9% sterile saline, twice a day, 6 h apart, 5 days/week for 2 weeks. The maximum tolerated dose (MTD) was defined as the dose at which 30% of a cohort either died or lost weight in excess of 10%.^19

M109 cells = test: Apoptosis assay by flow cytometry (Annexin V-FITC / PI), cultured M109 cells; type: cell-based, mouse
Protocol: Apoptotic cells were detected by a flow cytometer (FACSCalibur, Becton Dickinson, Calif., USA) using fluorescein isothiocyanate (FITC) labelled Annexin V binding to translocated plasma membrane phosphatidylserine (PS).^25 Propidium iodide (PI) was added to identify loss of cell membrane integrity, which is indicative of necrotic cells.
There was a dose-dependent increase in the percentage of apoptotic and dead cells after Dp44mT treatment (FIG. 13A). Exposure of cells to 1 μM Dp44mT caused a significant (p<0.05) increase of apoptotic and dead cells. This increase peaked at a Dp44mT concentration of 100 μM resulting in a population consisting of 40±7% apoptotic cells and 27±3% dead cells (FIG. 13A).

M109 lung carcinoma = test: In situ TUNEL assay of tumour samples from treated mice; type: in vivo, mouse; settings: 0.4 mg/kg, compared to vehicle-treated controls (FIG. 12B)
active caspase-3 = test: Protein level of active caspase-3 in M109 cells (western blotting); type: cell-based, mouse; settings: 1 μM
Protocol: (§2) FIG. 14. Effect of Dp44mT (1 μM) on the (A,B) protein levels of active caspase-3, -8 and -9, and (C,D) the activity of caspase-3, -8 and -9 in cultured M109 cells in the absence (C) and presence (D) of cell-permeable caspase inhibitors. (A) Caspase-3, -8, and -9 levels after Dp44mT treatment at indicated times as detected by western blotting (upper panel). The anti-β-actin antibody was used to ensure equal protein loading (lower panel). (B) Densitometric analysis of the expression of caspase-3, -8, and -9 as a function of time normalized to β-actin (C) Caspase activity induced by Dp44mT (1 μM) at 0-48 h was expressed as a percentage of the 0 h time value. (D) Cell-permeable inhibitors of caspase-3, -8 or -9 at 1 μM prevented activation of these enzymes when incubated with Dp44mT (1 μM) for 48 h. Results are mean±SEM of three separate experiments.
(§3) Rabbit anti-active caspase-3 antibody, rabbit anti-active caspase-8 antibody and Annexin V fluorescein isothiocyanate (FITC) were from BD PharMingen (San Diego, Calif., USA). Anti-h-cytc MoAb was from R&D Systems Minneapolis, Minn., USA). Rabbit anti-active caspase-9 antibody, mouse anti-Bcl-2 and mouse anti-Bax antibodies were obtained from Santa Cruz (Santa Cruz, Calif., USA). Mouse anti-mouse β-actin antibody, horseradish peroxidase-conjugated antirabbit, and anti-mouse IgG were from Sigma Chemical Co. (St. Louis, Mo., USA).
(§4) To determine the role of caspase activation in Dp44mT-induced apoptosis in M109 cells, protein levels of active caspase-3, -8 and -9 (FIG. 14A,B) and their enzymatic activity (FIG. 14C,D) were examined.

active caspase-8 = test: Protein level of active caspase-8 in M109 cells (western blotting); type: cell-based, mouse; settings: 1 μM
Protocol: as §2, §3, §4

caspase-8 = test: Caspase-8 activity in M109 cells (BD Apolert Caspase Assay Plate); type: cell-based, mouse; settings: 1 μM
Protocol: (§5) Cultured M109 cells were treated with or without Dp44mT (1 μM) for 0-48 h at 37° C. Cells were lysed^27 and caspase activities were determined using the BD Apolert™ Caspase Assay Plate (BD Biosciences, San Diego, Calif., USA). Cell-permeable pan-caspase-3, -8, and -9 inhibitors (BD Biosciences) were included as inhibitory controls.

caspase-9 = test: Caspase-9 activity in M109 cells (BD Apolert Caspase Assay Plate); type: cell-based, mouse; settings: 1 μM
Protocol: as §5

## CC(=O)N(O)CCCCCNC(=O)CCC(=O)N(O)CCCCCNC(=O)CCC(=O)N(O)CCCCCN [DFO, desferrioxamine]
[1]
  3H-Leucine Incorporation: 9 ± 1 % Control
[2]
  3H-Uridine Incorporation: 34 ± 5 % Control
GADD45 and WAF1 mRNA
  GADD45 and WAF1 mRNA expression: up-regulation
[3]
  IRP-RNA binding activity: increase

## CN(C)C(=S)NN=C(c1ccccn1)c1ccccn1 [Dp44mT, di-2-pyridylketone 4,4-dimethyl-3-thiosemicarbazone]
[4]
  maximum tolerated dose (MTD): 0.4 mg/kg
M109 cells; 1 μM, 12 h
  apoptotic cells: 12±2%
M109 cells; 100 μM, 24 h
  apoptotic cells: 40±7%
  dead cells: 27±3%
M109 cells; 250 μM, 24 h
  apoptotic cell numbers: 20±2%
  dead cell population: 42±6%
M109 lung carcinoma
  apoptotic cell death in tumour samples: increased apoptotic cell death
Active caspase-3; 2 h
  caspase-3 protein level: 168 % of the control
Active caspase-3; 6 h
  caspase-3 protein level: 400 % of the control
Active caspase-3; 12 h
  caspase-3 protein level: 380 % of the control
Active caspase-3; 24 h
  caspase-3 protein level: about 4 fold that of control cells
Active caspase-3; 48 h
  caspase-3 protein level: 5.5 fold that of control cells
Active caspase-8; 2 h
  caspase-8 protein level: not increased
Active caspase-8; 6 h
  caspase-8 protein level: 150 % of the control
Active caspase-8; 12 h
  caspase-8 protein level: 400 % of the control
Active caspase-8; 24 h
  caspase-8 protein level: about 4 fold that of control cells
Active caspase-8; 48 h
  caspase-8 protein level: 3.4 fold that of control cells
caspase-8; 12 h
  caspase-8 activity: 299 % of the control
caspase-8; after 24 h
  caspase-8 activity (plateau): 400-600 % of the control
caspase-9; 12 h
  caspase-9 activity: 354 % of the control
caspase-9; after 24 h
  caspase-9 activity (plateau): 400-600 % of the control
